Measured values: PubChem BioAssay (NCI)
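Test compounds were applied to cells in 96-well plates for 48 hours at 5 doses. GI50 = concentration required for 50% inhibition of growth. TGI marks complete inhibition of growth.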

Experiments:
Assay in all cases: growth of human tumour cells (NCI), 48 h
[1] = tested on: SK-OV-3 ovarian
[2] = tested on: OVCAR-5 ovarian
[3] = tested on: SK-MEL-2 melanoma
[4] = tested on: T-47D breast
[5] = tested on: ACHN renal
[6] = tested on: KM12 colon
[7] = tested on: DU-145 prostate
[8] = tested on: HL-60(TB) leukemia

COc1ccc(-c2ccc(-c3ccc(C(=N)N)cc3)s2)cc1Cl
GI50 [1]: 1980 nM
TGI [1]: 4460 nM
GI50 [2]: 1550 nM
TGI [2]: 2880 nM
GI50 [3]: 2050 nM
TGI [3]: 4200 nM
GI50 [4]: 1850 nM
TGI [4]: 4330 nM
GI50 [5]: 1620 nM
TGI [5]: 2970 nM
GI50 [6]: 1750 nM
TGI [6]: 3130 nM
GI50 [7]: 1700 nM
TGI [7]: 3060 nM
GI50 [8]: 1910 nM
TGI [8]: 4050 nM
